Laboratory results as given in patent publication US12174172B2, “Method for evaluating the efficacy of a composition in reducing the effects of cancer therapeutics on skin” (Johnson & Johnson Consumer Inc., priority 2019, dated 2024).
Entries after “also recorded” stand apart in the source; their conditions may differ. Marks after values point to notes of the source that are not given here.

Columns and labels:
[1] = system: Human epidermal keratinocytes cells (HPEKs), 3D micro-epidermis; test: 3D micro-epidermis model (EpiScreen): epidermis size, toxicity, dose response, classification; format: cell-based;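 note: keratinocytes on micropatterned discs in high-calcium medium, drug exposure for three days, then fixation and confocal high-content imaging of actin, nuclei and a marker, vehicle DMSO-matched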
[2] = system: SkinEthic Reconstructed Human Epidermis (RHE); test: Skin barrier function: trans-epidermal water loss (TEWL) on reconstructed human epidermis; format: cell-based; conditions: day 7; SDS 0.5% topical; afatinib 100 nM in the media
Method: The effect of drugs on the skin barrier function was assessed by measuring trans-epidermal water loss (TEWL) rates on SkinEthicTM Reconstructed Human Epidermis (RHE) model (Episkin, Lyon, France) using Tewitro® TW 24 (Courage+Khazaka electronic GmbH, Köln, Germany). This instrument allows 24 simultaneous measurements on RHE. TEWL was analyzed at 33° C. in an incubator. […] Petrolatum, a highly hydrophobic hydrocarbon, water-repelling and insoluble in water was used to block water evaporation at the RHE surface (negative control). […] DMSO was used in the same proportion in the vehicle. SkinEthicTM RHE (Episkin, Lyon, France), is an in vitro reconstructed human epidermis from normal human keratinocytes cultured on an inert polycarbonate filter at the air-liquid interface, in a chemically defined medium. This model exists at different stages of maturity. This model is histologically similar to in vivo human epidermis. See […].com/SkinEthic%20RHE. The Tewitro® TW 24 is a device that measures water evaporation from cultured tissue sets (wells in a plate with medium) in up to 24 wells simultaneously. See https://www.courage-[…].

Keratinocytes = test: WST-8 viability and proliferation assay; format: cell-based, human; conditions: keratinocytes exposed for 24 h, relative to vehicle (FIG. 5a)
From the text: The Water-Soluble Tetrazolium Salts (WST-8) Colorimetric Cell Proliferation Kit (Promokine, Heidelberg, Germany) provides a rapid and sensitive way to quantify proliferation and cell viability. Cell proliferation causes an increase in the amount of formazan dye formed that can be quantified by measuring the absorbance of the dye solution at […] using a microtiter plate reader (Perkin Elmer EnVision 2103 Multilabel Reader, Waltham, MA, USA). Cellular proliferation induces an increase in the activity of mitochondrial dehydrogenases, which cleaves the tetrazolium salt […] into formazan. 15,000 Keratinocytes per well were seeded on 96-well plate, once confluence reach, drug concentration used were +/−½ log of the plasmatic concentration. 10 μl of Colorimetric Cell Viability Kit is added and completed with 360 μl of culture media, results were read after 4 h at 450 nm to determine cell viability. Results were obtained with 6 donors of keratinocytes in 2 experiments

[3] = system: caspase-3 activity in keratinocytes; test: Caspase-3 fluorometric assay (cell apoptosis); format: cell-based, human; conditions: 2.59 nM and 25.89 nM, 24 h (FIG. 5b)
From the text: The kit (biotium, Fremont, CA, USA) provides a homogenous assay system for fast and highly sensitive detection of caspase-3 activity by fluorescence in enzymatic reaction or mammalian cells. The fluorogenic substrate (Ac-DEVD) 2-R110 contains two DEVD (Asp-Glu-Val-Asp) tetrapeptides and is completely hydrolyzed by the enzyme in two successive steps. Cleavage of the first DEVD peptide results in the monopeptide Ac-DEVD-R110 intermediate, which has absorption and emission wavelengths similar to those of R110 (Ex/Em=496/520 nm) but has only about 10% of the fluorescence of the latter. Hydrolysis of the second DEVD peptide releases the dye R110, leading to a substantial fluorescence increase. Keratinocytes were plated at 15,000 cells per well in 100 μl of medium in a 96-well black microplate. They were allowed to attach and grow overnight in a 37° C., 5% CO2 incubator. They were then treated for 20 h with a 1:2 dilution series of staurosporine, a caspase 3 inducer. Imaging was performed on Perkin Elmer EnVision 2103 Multilabel Reader using an excitation wavelength of 490 nm and emission wavelength of 535 nm. Cells were incubated at room temperature for 15 min, protected from light. Results were obtained with 6 donors of keratinocytes in 2 experiments

[4] = cited from earlier work
[5] = most frequent cutaneous adverse reaction reported by the FDA Adverse Event Reporting System; cited from earlier work

SMILES: CN(C)C/C=C/C(=O)Nc1cc2c(Nc3ccc(F)c(Cl)c3)ncnc2cc1O[C@H]1CCOC1 [Afatinib]
- Toxicity at 1 μM ([1]; 1 μM, micro-epidermis): Yes
- effect on desmoglein-1, involucrin and filaggrin expression (dose dependence) ([1]; 3, 10, 30 nM): increases; also recorded: dose-dependent manner
- Epidermis size ([1]; Table 1 summary of drug effect on epidermis): Decreased
- Classification ([1]; Table 1 summary, pro-differentiation / pro-proliferation): Pro-differentiation
- Epidermis size ([1]; Table 3, 30 nM (EGFRi) or 100 nM (VEGFRi), 3 days, vs untreated control, superscript = significance footnote): Decreased^2
- Classification ([1]; Table 3, pro-proliferation or pro-differentiation): Pro-
- Dose in response ([1]; Table 3, variation of protein expression at 3, 10, 30 nM (EGFRi) or 3, 10, 30, 100 nM (VEGFRi), markers in brackets): Yes
- toxicity at higher drug concentration ([1]; above 1 μM, micro-epidermis): toxic leading to epidermal necrosis
- micro-epidermis size / epidermal volume ([1]; concentration (afatinib 3-30 nM; pan-kinase inhibitors up to 100 nM)): significantly decreased; also recorded: significantly reduced
- Dose/response ([1]; supplementary table, per run (1st or 2nd Run), markers in brackets): Yes (DSG, IVL,
- increase of the TEWL rate [2]: no significant change
- cell viability (Keratinocytes): decreases; also recorded: significant effect
- cell apoptosis [3]: does not induce apoptosis; also recorded: did not show any effect; also recorded: not affected
- Cmax ([4]; maximal plasma concentration after a single daily-recommended dose, human): 32 nM
- Unbound concentration ([4]; unbound plasma concentration, identified or calculated from Cmax and unbound fraction): 1.6 nM
- Unbound fraction ([4]; unbound to plasma protein): 5%*
- Major Skin Effect [5]: Rash
